From the supplement of paper PMC8149375

Assays:
Conditions in all cases: treatment: drug + dasatinib (fixed dose, not stated); 5 days
769-P [1] = assay: AUC of dose-response viability curve, drug + dasatinib, normalised to DMSO (arbitrary (AUC of normalised viability)); higher = less growth inhibition
Method: (§1)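 Primary HTS combination arm: 8 RCC cell lines treated with 8 doses (up to 10 uM) of each library drug plus a fixed dose of dasatinib (dose not stated) for 5 days; viability read by CellTiter-Glo and normalised to DMSO. GI50 was fitted with XLfit, AUC is the area under the dose-response curve, and minimum viability is the lowest fraction of DMSO viability across doses.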

A498 [2] = assay: as above
Method: as §1

786-O [3] = assay: as above
Method: as §1

TK-10 [4] = assay: as above
Method: as §1

SN12C [5] = assay: as above
Method: as §1

UO-31 [6] = assay: as above
Method: as §1

ACHN [7] = assay: as above
Method: as §1

CAKI-1 [8] = assay: as above
Method: as §1

769-P [9] = assay: minimum viability across doses, drug + dasatinib, relative to DMSO (fraction); higher = less growth inhibition
Method: as §1

A498 [10] = assay: as above
Method: as §1

786-O [11] = assay: as above
Method: as §1

TK-10 [12] = assay: as above
Method: as §1

SN12C [13] = assay: as above
Method: as §1

UO-31 [14] = assay: as above
Method: as §1

ACHN [15] = assay: as above
Method: as §1

CAKI-1 [16] = assay: as above
Method: as §1

769-P [17] = assay: GI50 of drug in presence of dasatinib; higher = less potent
Method: as §1

A498 [18] = assay: as above
Method: as §1

786-O [19] = assay: as above
Method: as §1

TK-10 [20] = assay: as above
Method: as §1

SN12C [21] = assay: as above
Method: as §1

UO-31 [22] = assay: as above
Method: as §1

CAKI-1 [23] = assay: as above
Method: as §1

Structure (SMILES) | GI50 of drug (786-O [19]) | AUC of dose-response viability curve (769-P [1]) | AUC of dose-response viability curve (A498 [2]) | AUC of dose-response viability curve (786-O [3]) | AUC of dose-response viability curve (TK-10 [4]) | AUC of dose-response viability curve (SN12C [5]) | AUC of dose-response viability curve (UO-31 [6]) | AUC of dose-response viability curve (ACHN [7]) | AUC of dose-response viability curve (CAKI-1 [8]) | minimum viability across doses (769-P [9]) | minimum viability across doses (A498 [10]) | minimum viability across doses (786-O [11]) | minimum viability across doses (TK-10 [12]) | minimum viability across doses (SN12C [13]) | minimum viability across doses (UO-31 [14]) | minimum viability across doses (ACHN [15]) | minimum viability across doses (CAKI-1 [16]) | GI50 of drug (769-P [17]) | GI50 of drug (A498 [18]) | GI50 of drug (TK-10 [20]) | GI50 of drug (SN12C [21]) | GI50 of drug (UO-31 [22]) | GI50 of drug (CAKI-1 [23])
O=C1NC(=O)/C(=C/c2ccc3nccnc3c2)S1 + Cc1nc(Nc2ncc(C(=O)Nc3c(C)cccc3Cl)s2)cc(N2CCN(CCO)CC2)n1 [dasatinib] | 1.55 µM | 2.33 | 3.09 | 2.15 | 2.57 | 2.56 | 3.46 | 2.01 | 2.23 | 0.491 | 0.781 | 0.464 | 0.64 | 0.704 | 0.879 | 0.479 | 0.343 | 8.39 µM | > 10 µM | > 10 µM | > 10 µM | > 10 µM | 4.25 µM
Cc1ccccc1-n1c(Cn2cnc3c(N)ncnc32)nc2cccc(C)c2c1=O + Cc1nc(Nc2ncc(C(=O)Nc3c(C)cccc3Cl)s2)cc(N2CCN(CCO)CC2)n1 [dasatinib] | 5.69 µM | 2.4 | 3.27 | 1.98 | 2.49 | 2.53 | 3.34 | 1.87 | 2.28 | 0.612 | 0.859 | 0.444 | 0.651 | 0.695 | 0.738 | 0.443 | 0.516 | > 10 µM | > 10 µM | > 10 µM | > 10 µM | > 10 µM | > 10 µM
Cn1cnc(N)c2ncnc1-2 [3-Methyladenine] + Cc1nc(Nc2ncc(C(=O)Nc3c(C)cccc3Cl)s2)cc(N2CCN(CCO)CC2)n1 [dasatinib] | > 10 µM | 2.57 | 3.49 | 2.32 | 2.57 | 2.57 | 4.32 | 1.56 | 2.47 | 0.649 | 0.947 | 0.542 | 0.691 | 0.703 | 1.03 | 0.329 | 0.673 | > 10 µM | > 10 µM | > 10 µM | > 10 µM | > 10 µM | > 10 µM
Cc1ccc(-n2nc(C(C)(C)C)cc2NC(=O)Nc2ccc(OCCN3CCOCC3)c3ccccc23)cc1 [BIRB 796 (Doramapimod)] + Cc1nc(Nc2ncc(C(=O)Nc3c(C)cccc3Cl)s2)cc(N2CCN(CCO)CC2)n1 [dasatinib] | > 10 µM | 2.29 | 3.07 | 2.63 | 2.49 | 2.4 | 3.79 | 1.78 | 2.29 | 0.537 | 0.755 | 0.639 | 0.66 | 0.659 | 0.946 | 0.439 | 0.567 | > 10 µM | > 10 µM | > 10 µM | > 10 µM | > 10 µM | > 10 µM

Continued, in another order:

GI50 of drug (786-O [19]) | Structure (SMILES) | AUC of dose-response viability curve (769-P [1]) | AUC of dose-response viability curve (A498 [2]) | AUC of dose-response viability curve (786-O [3]) | AUC of dose-response viability curve (TK-10 [4]) | AUC of dose-response viability curve (SN12C [5]) | AUC of dose-response viability curve (UO-31 [6]) | AUC of dose-response viability curve (ACHN [7]) | AUC of dose-response viability curve (CAKI-1 [8]) | minimum viability across doses (769-P [9]) | minimum viability across doses (A498 [10]) | minimum viability across doses (786-O [11]) | minimum viability across doses (TK-10 [12]) | minimum viability across doses (SN12C [13]) | minimum viability across doses (UO-31 [14]) | minimum viability across doses (ACHN [15]) | minimum viability across doses (CAKI-1 [16]) | GI50 of drug (769-P [17]) | GI50 of drug (A498 [18]) | GI50 of drug (TK-10 [20]) | GI50 of drug (SN12C [21]) | GI50 of drug (UO-31 [22]) | GI50 of drug (CAKI-1 [23])
> 10 µM | CCn1c(N)c(C(=O)NC)c(=O)c2ccc(C#C[C@@](C)(O)COC)nc21 + Cc1nc(Nc2ncc(C(=O)Nc3c(C)cccc3Cl)s2)cc(N2CCN(CCO)CC2)n1 [dasatinib] | 2.74 | 3.2 | 2.59 | 2.72 | 2.52 | 4.43 | 1.87 | 2.43 | 0.671 | 0.773 | 0.589 | 0.721 | 0.684 | 0.884 | 0.432 | 0.588 | > 10 µM | > 10 µM | > 10 µM | > 10 µM | > 10 µM | > 10 µM
4.54 µM | O=c1cc(N2CCOCC2)oc2c(-c3ccccc3)cccc12 + Cc1nc(Nc2ncc(C(=O)Nc3c(C)cccc3Cl)s2)cc(N2CCN(CCO)CC2)n1 [dasatinib] | 2.2 | 2.88 | 2.28 | 2.49 | 2.34 | 3.24 | 1.77 | 1.98 | 0.412 | 0.656 | 0.394 | 0.663 | 0.512 | 0.457 | 0.362 | 0.393 | 5.32 µM | > 10 µM | > 10 µM | > 10 µM | 9.2 µM | 3.01 µM
> 10 µM | C[C@@H]1CCN(C(=O)CC#N)C[C@@H]1N(C)c1ncnc2[nH]ccc12 + Cc1nc(Nc2ncc(C(=O)Nc3c(C)cccc3Cl)s2)cc(N2CCN(CCO)CC2)n1 [dasatinib] | 2.6 | 3.91 | 3.03 | 2.59 | 2.51 | 4.82 | 1.62 | 2.53 | 0.664 | 1 | 0.743 | 0.7 | 0.695 | 1.23 | 0.363 | 0.685 | > 10 µM | > 10 µM | > 10 µM | > 10 µM | > 10 µM | > 10 µM
6.65 µM | CCS(=O)(=O)N1CC(CC#N)(n2cc(-c3ncnc4[nH]ccc34)cn2)C1 + Cc1nc(Nc2ncc(C(=O)Nc3c(C)cccc3Cl)s2)cc(N2CCN(CCO)CC2)n1 [dasatinib] | 2.46 | 4.02 | 2.58 | 2.61 | 2.51 | 4.24 | 1.78 | 2.4 | 0.625 | 1.07 | 0.399 | 0.689 | 0.692 | 0.917 | 0.44 | 0.47 | > 10 µM | > 10 µM | > 10 µM | > 10 µM | > 10 µM | 8.06 µM
